According to US20120157548A1, “USE OF CYCLOALIPHATIC DIOLS AS BIOCIDES” (BASF SE, priority 2009, published 2012):

How the values were obtained:
[1] = tested on: P. aeruginosa NCIMB 10421; experiment: Biocide test, MIC in tryptone soy broth; assay type: cell-based; settings: 30° C., 48 hours; for MIC value, from: lower limit of MIC range; for MIC value, to: upper limit of MIC range
Protocol: (§1) For this, in each case a 40 percent strength by weight solution of a diol in propylene glycol was prepared at 60° C.
(§2) This solution was diluted with a double-strength soy solution (double-strength tryptone soy broth) as nutrient medium in the volume ratio 1:1. Further dilution with soy solution produced solutions with the following concentrations:
(§3) The following microorganisms were used to test the biocidal effect against various bacteria and fungi:
P. aeruginosa NCIMB 10421
(§4) Pure soy solution was used as negative control. The positive control used was a solution of 5 ml of soy solution which has been treated with 0.1 ml of the respective microorganism. The test solutions consisted of 5 ml of the above-described soy solutions of the diols in the particular concentration which have been mixed with 0.1 ml of the respective microorganism.
(§5) The samples and controls were incubated in the case of the bacteria at 30° C. for 48 hours, and in the case of fungi over 5 days at 25° C.
(§6) In each case, the MIC (Minimum Inhibitory Concentration) value was determined. This value indicates the minimum concentration above which the growth of the microorganisms was visibly hindered compared to the corresponding sample without addition of the diol.
(§7) The lower the MIC value, the greater the biocidal effect.
(§8) For example, this was evident from the occurrence of clouding or visible growth of the microorganism.
(§9) The MIC value stated is a range between the next higher concentration of a positive test and the same and/or lower concentration of a first negative test.

[2] = tested on: A. niger IMI 149007; experiment: Biocide test, MIC in tryptone soy broth; assay type: cell-based; settings: 25° C., 5 days; for MIC value, from: lower limit of MIC range; for MIC value, to: upper limit of MIC range
Protocol: as §1, §2, §3, §4, §5, §6, §7, §8, §9

[3] = tested on: C. albicans NCPF 3179; experiment: Biocide test, MIC in tryptone soy broth; assay type: cell-based; settings: 25° C., 5 days; for MIC value, from: lower limit of MIC range; for MIC value, to: upper limit of MIC range
Protocol: as §1, §2, §3, §4, §5, §6, §7, §8, §9

[4] = tested on: E. coli NCIMB 8545; experiment: Biocide test, MIC in tryptone soy broth; assay type: cell-based; settings: 30° C., 48 hours; for MIC value, from: lower limit of MIC range; for MIC value, to: upper limit of MIC range
Protocol: as §1, §2, §3, §4, §5, §6, §7, §8, §9

[5] = tested on: P. vulgaris NCIMB 4175; experiment: Biocide test, MIC in tryptone soy broth; assay type: cell-based; settings: 30° C., 48 hours; for MIC value, from: lower limit of MIC range; for MIC value, to: upper limit of MIC range
Protocol: as §1, §2, §3, §4, §5, §6, §7, §8, §9

[6] = tested on: S. aureus NCIMB 9578; experiment: Biocide test, MIC in tryptone soy broth; assay type: cell-based; settings: 30° C., 48 hours; for MIC value, from: lower limit of MIC range; for MIC value, to: upper limit of MIC range
Protocol: as §1, §2, §3, §4, §5, §6, §7, §8, §9

[7] = tested on: series of tested microorganisms; experiment: Biocide test, highest measured MIC from the series of tested microorganisms; assay type: cell-based; settings: highest measured MIC of the six microorganisms; for Maximum MIC value, from: lower limit of range; for Maximum MIC value, to: upper limit of range
Protocol: as §3, §6, §9
In the last line of each of the tables below, a “maximum” value is listed. This value indicates the highest measured MIC value in each case from the series of tested microorganisms.

[8] = tested on: microorganisms; settings: as stated for the comparison substances; cited from earlier work

Row | Compound | MIC value, from [1] | MIC value, to [1] | MIC value, from [2] | MIC value, to [2] | MIC value, from [3] | MIC value, to [3] | MIC value, from [4] | MIC value, to [4] | MIC value, from [5] | MIC value, to [5] | MIC value, from [6] | MIC value, to [6] | Maximum MIC value, from [7] | Maximum MIC value, to [7] | biocidal effect [8]
1 | Hydroxymethylbicyclo[2.2.1]hept-2-ylpropan-1-ol isomers [ENB-Diol] | >50 000 ppm of diol | ≦100 000 ppm of diol | >12 500 ppm of diol | ≦25 000 ppm of diol | >12 500 ppm of diol | ≦25 000 ppm of diol | >3 125 ppm of diol | ≦6 250 ppm of diol | >3 125 ppm of diol | ≦6 250 ppm of diol | >3 125 ppm of diol | ≦6 250 ppm of diol | >50 000 ppm of diol | ≦100 000 ppm of diol | 
2 | CC(O)CC(C)O (centres unmarked) [2,4-Pentanediol] | >50 000 ppm of diol | ≦100 000 ppm of diol | >200 000 ppm of diol | ≦400 000 ppm of diol | >50 000 ppm of diol | ≦100 000 ppm of diol | >50 000 ppm of diol | ≦100 000 ppm of diol | >50 000 ppm of diol | ≦100 000 ppm of diol | >50 000 ppm of diol | ≦100 000 ppm of diol | >200 000 ppm of diol | ≦400 000 ppm of diol | low biocidal effect
3 | Hydroxymethylbicyclo[2.2.1]hept-2-ylmethanol isomers [2,5-2,6-DMNB] | >6 250 ppm of diol | ≦12 500 ppm of diol | >50 000 ppm of diol | ≦100 000 ppm of diol | >50 000 ppm of diol | ≦100 000 ppm of diol | >6 250 ppm of diol | ≦12 500 ppm of diol | >6 250 ppm of diol | ≦12 500 ppm of diol | >6 250 ppm of diol | ≦12 500 ppm of diol | >50 000 ppm of diol | ≦100 000 ppm of diol | 
4 | Hydroxymethylcyclohexylpropan-1-ol isomers [CHA-diol] | >50 000 ppm of diol | ≦100 000 ppm of diol | >200 000 ppm of diol | ≦400 000 ppm of diol | >6 250 ppm of diol | ≦12 500 ppm of diol | >3 125 ppm of diol | ≦6 250 ppm of diol | >3 125 ppm of diol | ≦6 250 ppm of diol | >6 250 ppm of diol | ≦12 500 ppm of diol | >200 000 ppm of diol | ≦400 000 ppm of diol | 
5 | CCCC(O)CO (centres unmarked) [1,2-Pentanediol] | >12 500 ppm of diol | ≦25 000 ppm of diol | >12 500 ppm of diol | ≦25 000 ppm of diol | >25 000 ppm of diol | ≦50 000 ppm of diol | >25 000 ppm of diol | ≦50 000 ppm of diol | >25 000 ppm of diol | ≦50 000 ppm of diol | >25 000 ppm of diol | ≦50 000 ppm of diol | >25 000 ppm of diol | ≦50 000 ppm of diol | high biocidal effect
6 | CC(O)CO (centres unmarked) [Propylene Glycol] | >100 000 ppm of diol | ≦200 000 ppm of diol | >200 000 ppm of diol | ≦400 000 ppm of diol | >200 000 ppm of diol | ≦400 000 ppm of diol | >200 000 ppm of diol | ≦400 000 ppm of diol | >100 000 ppm of diol | ≦200 000 ppm of diol | >200 000 ppm of diol | ≦400 000 ppm of diol | >200 000 ppm of diol | ≦400 000 ppm of diol | 
